Experiments:
human NK-3 receptor [1] = biological target: T1, human NK-3 receptor (Homo sapiens, UniProt P29371); assay: 3H-SB222200 binding competition assay with human NK-3 receptor; parameters: expressed in transfected cells; membranes; details: read-out: Competitive binding assay with human NK-3 receptor hNK-3 (Ki)
T1 sequence (P29371 1-465): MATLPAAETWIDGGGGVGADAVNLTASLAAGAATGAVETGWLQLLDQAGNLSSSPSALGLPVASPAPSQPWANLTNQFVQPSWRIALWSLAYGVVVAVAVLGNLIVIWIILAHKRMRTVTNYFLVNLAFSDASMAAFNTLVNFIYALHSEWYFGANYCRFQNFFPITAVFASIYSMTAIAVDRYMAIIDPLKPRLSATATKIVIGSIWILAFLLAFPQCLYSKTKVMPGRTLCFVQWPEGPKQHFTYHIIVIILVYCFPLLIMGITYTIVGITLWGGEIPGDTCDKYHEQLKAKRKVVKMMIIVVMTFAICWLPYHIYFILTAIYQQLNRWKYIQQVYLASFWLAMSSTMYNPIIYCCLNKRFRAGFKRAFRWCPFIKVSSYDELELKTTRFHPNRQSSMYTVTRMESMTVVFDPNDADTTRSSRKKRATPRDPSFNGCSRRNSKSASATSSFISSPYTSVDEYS
Protocol: The affinity of compounds of the invention for the human NK-3 receptor was determined by measuring the ability of compounds of the invention to competitively and reversibly displace a well-characterized NK-3 radioligand in a concentration-dependent manner.
Membranes were prepared from Chinese hamster ovary recombinant cells stably expressing the human NK-3 receptor. The membranes were incubated with 5 nM ^3H-SB222200 (ARC) in a HEPES 25 mM/NaCl 0.1M/CaCl2 1 mM/MgCl2 5 mM/BSA 0.5%/Saponin 10 μg/ml buffer at pH 7.4 and various concentrations of compounds of the invention. The amount of ^3H-SB222200 bound to the receptor was determined after filtration by the quantification of membrane associated radioactivity using the TopCount-NXT reader (Packard).

human NK-3 receptor [2] = biological target: T1, human NK-3 receptor; assay: cell-based
Protocol: Aequorin Assay with Human NK-3 Receptor.
The efficacy of compounds of the invention to inhibit NKA-mediated NK-3 receptor activation was assessed by an in vitro Aequorin functional assay. Chinese Hamster Ovary recombinant cells expressing the human NK-3 receptor and a construct that encodes the photoprotein apoaequorin were used for this assay. In the presence of the cofactor coelenterazine, apoaequorin emits a measurable luminescence that is proportional to the amount of intracellular (cytoplasmic) free calcium.
The antagonist activity of compounds of the invention is measured following pre-incubation (3 minutes) of the compound (at various concentrations) with the cells, followed by addition of the reference agonist (NKA) at a final concentration equivalent to the EC80 (3 nM) and recording of emitted light (FDSS 6000 Hamamatsu) over the subsequent 90-second period. The intensity of the emitted light is integrated using the reader software. Compound antagonist activity is measured based on the concentration-dependent inhibition of the luminescence response to the addition of Neurokinin A.

Ki (human NK-3 receptor [1]): 17 nM
IC50 (human NK-3 receptor [2]): 13 nM
Structure (SMILES): [2H]C([2H])([2H])c1nsc(-c2nnc3n2CCN(C(=O)c2ccc(F)cc2)[C@@H]3C)n1 [Deuterated fezolinetant, (R)-(4-fluorophenyl)-(8-methyl-3-(3-(methyl-d3)-1,2,4-thiadiazol-5-yl)-5,6-dihydro-[1,2,4]trizolo[4,3-a]pyrazin-7(8H)-yl)methanone]
